Results published in patent US20220193076A1, “METHODS OF TREATING BREAST CANCER WITH TUCATINIB” (Seagen Inc., priority 2019, published 2022).

How the values were obtained:
CYP2C8 = molecular target: T1, CYP2C8 (Homo sapiens, UniProt P10632); test: Example 2 Part D: effect of tucatinib on PK of substrate probe repaglinide; type: in vivo; parameters: endogenous in cells; host or cells: healthy human subjects, in vivo; conditions: repaglinide in combination with steady-state tucatinib vs repaglinide alone
T1 sequence (P10632 1-490): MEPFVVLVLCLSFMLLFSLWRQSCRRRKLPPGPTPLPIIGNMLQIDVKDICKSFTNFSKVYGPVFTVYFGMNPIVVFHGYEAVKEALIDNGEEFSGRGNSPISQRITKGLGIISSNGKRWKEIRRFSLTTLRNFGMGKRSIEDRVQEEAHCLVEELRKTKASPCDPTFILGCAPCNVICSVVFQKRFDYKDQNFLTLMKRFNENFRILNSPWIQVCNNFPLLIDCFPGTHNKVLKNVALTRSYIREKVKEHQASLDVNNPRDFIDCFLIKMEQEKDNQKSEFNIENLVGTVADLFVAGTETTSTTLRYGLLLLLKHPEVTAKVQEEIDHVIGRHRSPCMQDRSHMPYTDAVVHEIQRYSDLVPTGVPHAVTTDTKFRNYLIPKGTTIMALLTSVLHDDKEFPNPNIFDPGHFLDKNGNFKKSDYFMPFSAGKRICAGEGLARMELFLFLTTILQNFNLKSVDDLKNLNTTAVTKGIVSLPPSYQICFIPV
Experimental: (§1) A Phase 1, open-label, fixed-sequence, 5-part, drug-drug interaction study of tucatinib was conducted to evaluate the effects of CYP3A4 and CYP2C8 inhibition and induction on the pharmacokinetics of tucatinib and to evaluate the effects of tucatinib on the pharmacokinetics of substrates of CYP3A4, CYP2C8, CYP2C9, and P-glycoprotein in healthy male and female subjects.
(§2) Part B evaluates the effect of rifampin, a strong inducer of CYP3A4 and CYP2C8, on the PK of tucatinib. […] Part E evaluates the effect of tucatinib on the PK of a substrate probe of the transporter P-gp (digoxin). […] For Parts A, B, and C, tucatinib is given as a single oral dose because evaluating plasma exposures after a single dose of tucatinib is expected to provide an appropriate assessment of the impact of the probe drugs on tucatinib PK. In Parts D and E, tucatinib is given as a multiple-dosing regimen in order to examine its effects on probe drugs at steady state, at which maximal inhibition of CYP2C8, CYP2C9, CYP3A4, and P-gp by tucatinib should be achieved.
(§3) Secondary objectives of the study included: (1) assessing the safety and tolerability of tucatinib when administered alone and when co-administered with substrate probes of CYP2C8, CYP2C9, and CYP3A4; and (2) assessing the single-dose PK of tucatinib and assessing the multiple-dose, steady-state PK of tucatinib alone and in the presence of substrate probes of CYP2C8, CYP2C9, and CYP3A4 in healthy subjects.
(§4) They were discharged on Day 14 after completion of the in-patient assessments.
(§5) On Day 1, each subject received a single oral dose of 0.5 mg of repaglinide. […] From Day 4 to Day 13, each subject received oral doses of 300 mg of tucatinib, twice daily (BID). On Day 11, each subject received a single oral dose of repaglinide. […] Tucatinib was provided as 150-mg tablets (2 tablets for the 300-mg dose), repaglinide was provided as 0.5-mg tablets, olbutamide was provided as 500-mg tablets, and midazolam was provided as a syrup (2 mg/mL; 1 mL syrup for the 2-mg dose). Tucatinib, repaglinide, olbutamide and midazolam were administered before meals preceded by an at least 8-hour overnight fast.
(§6) Other noncompartmental PK parameters may be reported. Additionally, blood samples for determination of plasma concentrations of tucatinib and ONT-993 were collected at the time points indicated in FIG. 8. […] A single genotyping blood sample was collected to assess possible effect of CYP polymorphisms or other genetic polymorphisms on the magnitude of drug interactions of tucatinib with probe drugs and substrates.

CYP3A4 = CYP3A4 (Homo sapiens, UniProt P08684); test: Example 2 Part D: effect of tucatinib on PK of substrate probe midazolam; conditions: steady-state tucatinib in combination with tolbutamide/midazolam vs tolbutamide/midazolam alone
Experimental: as §1, §2, §3, §4, §5, §6

[1] = Example 1: renal function (iohexol aGFR, serum creatinine, urine albumin); type: in vivo, human
MATE1/2K [2] = test: clinical; conditions: both, human, plasma
MATE1/2K [3] = test: Phase 1 drug-drug interaction study: effect of tucatinib on metformin pharmacokinetics (Example 1)
P-gp = P-gp (Homo sapiens, UniProt P08183); test: Example 2 Part E: effect of tucatinib on PK of substrate probe digoxin; conditions: digoxin in combination with steady-state tucatinib vs digoxin alone
Experimental: as §1, §2
A single genotyping blood sample was collected to assess possible effect of CYP polymorphisms or other genetic polymorphisms on the magnitude of drug interactions of tucatinib with probe drugs and substrates.

CYP2C9 = CYP2C9 (Homo sapiens, UniProt P11712); test: Example 2 Part D: effect of tucatinib on PK of substrate probe tolbutamide; conditions: tolbutamide/midazolam in combination with steady-state tucatinib vs tolbutamide/midazolam alone
Experimental: as §1, §2, §3, §4
as §5, with “Tucatinib, repaglinide, olbutamide and midazolam were administered before meals preceded by an at least 8-hour overnight fast.” left out

[4] = coadministration of tucatinib with metformin compared to metformin alone
[5] = Metformin with tucatinib (Test), n = 17

Chain of CYP3A4 (P08684 whole entry): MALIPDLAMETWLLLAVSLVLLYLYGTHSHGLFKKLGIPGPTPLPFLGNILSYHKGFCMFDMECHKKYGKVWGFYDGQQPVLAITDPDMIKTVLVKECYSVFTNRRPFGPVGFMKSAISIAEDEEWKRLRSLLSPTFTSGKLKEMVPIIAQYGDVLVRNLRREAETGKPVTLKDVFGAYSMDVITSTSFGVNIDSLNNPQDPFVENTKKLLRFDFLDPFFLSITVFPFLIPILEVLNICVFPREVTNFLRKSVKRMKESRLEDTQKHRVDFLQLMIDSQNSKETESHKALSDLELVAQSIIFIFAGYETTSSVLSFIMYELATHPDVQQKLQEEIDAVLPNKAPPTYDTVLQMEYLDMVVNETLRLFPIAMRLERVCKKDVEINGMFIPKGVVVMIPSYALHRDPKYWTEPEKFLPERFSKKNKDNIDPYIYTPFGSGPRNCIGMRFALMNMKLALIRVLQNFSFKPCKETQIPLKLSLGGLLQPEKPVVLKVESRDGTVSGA
Chain of CYP2C9 (P11712 whole entry): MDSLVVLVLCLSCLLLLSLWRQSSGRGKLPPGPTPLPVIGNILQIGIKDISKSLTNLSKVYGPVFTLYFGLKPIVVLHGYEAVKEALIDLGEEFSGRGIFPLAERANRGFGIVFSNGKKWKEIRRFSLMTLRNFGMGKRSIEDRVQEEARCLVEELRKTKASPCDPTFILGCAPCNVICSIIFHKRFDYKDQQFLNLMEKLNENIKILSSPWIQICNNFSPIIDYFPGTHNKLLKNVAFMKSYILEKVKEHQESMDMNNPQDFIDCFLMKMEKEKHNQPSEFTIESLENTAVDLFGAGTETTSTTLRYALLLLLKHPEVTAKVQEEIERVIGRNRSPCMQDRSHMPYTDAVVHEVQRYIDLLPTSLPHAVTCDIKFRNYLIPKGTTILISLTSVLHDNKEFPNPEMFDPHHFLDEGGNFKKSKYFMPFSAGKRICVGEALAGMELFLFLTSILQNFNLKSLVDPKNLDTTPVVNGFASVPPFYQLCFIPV
Chain of P-gp (P08183 whole entry): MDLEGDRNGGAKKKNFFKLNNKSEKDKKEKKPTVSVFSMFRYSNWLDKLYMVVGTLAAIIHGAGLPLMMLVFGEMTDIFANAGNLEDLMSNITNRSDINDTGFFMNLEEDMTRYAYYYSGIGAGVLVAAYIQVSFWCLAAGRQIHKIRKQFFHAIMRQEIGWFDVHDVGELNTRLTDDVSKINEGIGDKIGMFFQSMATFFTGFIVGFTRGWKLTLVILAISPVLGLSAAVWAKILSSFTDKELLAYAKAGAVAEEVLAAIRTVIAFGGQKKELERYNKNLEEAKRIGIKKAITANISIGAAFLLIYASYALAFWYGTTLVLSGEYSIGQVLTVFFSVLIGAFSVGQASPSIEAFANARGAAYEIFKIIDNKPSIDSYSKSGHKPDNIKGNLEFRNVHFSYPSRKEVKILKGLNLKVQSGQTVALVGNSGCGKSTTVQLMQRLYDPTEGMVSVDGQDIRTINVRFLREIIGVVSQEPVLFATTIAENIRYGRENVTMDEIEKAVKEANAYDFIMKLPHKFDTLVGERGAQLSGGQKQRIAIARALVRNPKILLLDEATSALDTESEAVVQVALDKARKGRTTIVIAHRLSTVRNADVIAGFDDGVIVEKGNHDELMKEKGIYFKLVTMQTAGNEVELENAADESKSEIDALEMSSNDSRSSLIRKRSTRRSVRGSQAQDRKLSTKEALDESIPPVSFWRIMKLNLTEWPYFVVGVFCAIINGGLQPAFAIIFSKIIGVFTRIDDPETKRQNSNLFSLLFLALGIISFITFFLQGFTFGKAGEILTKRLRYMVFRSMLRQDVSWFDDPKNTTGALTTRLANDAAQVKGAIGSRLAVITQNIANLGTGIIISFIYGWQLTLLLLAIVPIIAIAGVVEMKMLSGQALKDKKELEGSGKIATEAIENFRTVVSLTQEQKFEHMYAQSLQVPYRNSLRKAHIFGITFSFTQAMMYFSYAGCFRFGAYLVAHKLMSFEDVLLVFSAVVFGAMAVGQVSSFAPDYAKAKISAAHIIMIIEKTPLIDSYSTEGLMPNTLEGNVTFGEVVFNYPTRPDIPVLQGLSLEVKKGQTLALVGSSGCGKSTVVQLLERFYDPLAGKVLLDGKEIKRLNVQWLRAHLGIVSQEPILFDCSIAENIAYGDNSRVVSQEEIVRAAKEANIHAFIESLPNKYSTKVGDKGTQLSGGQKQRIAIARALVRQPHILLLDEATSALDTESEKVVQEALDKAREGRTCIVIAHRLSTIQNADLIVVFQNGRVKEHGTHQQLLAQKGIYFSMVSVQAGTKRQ

With `CCOc1cc(CC(=O)N[C@@H](CC(C)C)c2ccccc2N2CCCCC2)ccc1C(=O)O` [repaglinide] the “Geometric LS mean ratio (90% CI), AUC0-∞” value (CYP2C8) was 1.69 (1.51, 1.90), the “Geometric LS mean ratio (90% CI), AUClast” value (CYP2C8) was 1.72 (1.55, 1.91) and the “Geometric LS mean ratio (90% CI), Cmax” value (CYP2C8) was 1.69 (1.37, 2.10).
For `OCc1ncc2n1-c1ccc(Cl)cc1C(c1ccccc1F)=NC2` [1-hydroxymidazolam], the “Geometric LS mean ratio (90% CI), AUC0-∞” value (CYP3A4) was 1.02 (0.903, 1.16), the “Geometric LS mean ratio (90% CI), AUClast” value (CYP3A4) was 0.945 (0.848, 1.05) and the “Geometric LS mean ratio (90% CI), Cmax” value (CYP3A4) was 0.593 (0.507, 0.694). For the same compound, the “Geometric mean MRAUC0-∞, decreased by” value (CYP3A4) was “approximately 82.8%” and the “Geometric mean MRCmax, decreased by” value (CYP3A4) was roughly 80.4%.
For `CC(=O)N(CC(O)CO)c1c(I)c(C(=O)NCC(O)CO)c(I)c(C(=O)NCC(O)CO)c1I` (stereo not shown) [iohexol, reference compound], the “Mean iohexol PK parameters” value [1, 4] was “similar”, the “aGFR estimated using the Jødal and Brøchner Mortensen equation (iohexol)” value ([1]; metformin alone) was 94.99 mL/min/1.73 m^2 and the “aGFR estimated using the Jødal and Brøchner Mortensen equation (iohexol)” value ([1]; metformin plus tucatinib) was 94.56 mL/min/1.73 m^2.
For `CN(C)C(=N)N=C(N)N` [metformin], the AUC (MATE1/2K [2]; oral) was 11600 ng·h/mL, the AUC (MATE1/2K [2]; oral, 850 mg) was 8330 ng·h/mL and the AUC(0-t) (MATE1/2K [2]; oral, 850 mg) was 8150 ng·h/mL. It also gave a Cmax (MATE1/2K [2]; oral, 850 mg) of 1310 ng/mL, an AUC(0-inf) (MATE1/2K [2]; po, 850 mg) of 8610 ng·h/mL and an AUC(0-t) (MATE1/2K [2]; po, 850 mg) of 8420 ng·h/mL. The Cmax (MATE1/2K [2]; po, 850 mg) was 1330 ng/mL, the Vd/F (MATE1/2K [2]; po, 850 mg) was 695 L and the “Plasma metformin CL/F, arithmetic mean (CV %)” value (“Plasma metformin CL/F … (CV %)” below) (MATE1/2K [3]; Metformin + tucatinib 300 mg bid at steady state, Day 8, N = 17) was 77.4 L/h. The “Plasma metformin CL/F … (CV %)” value (MATE1/2K [3]; Metformin + tucatinib 300 mg bid at steady state, Day 8, N = 17, listed as Metformin) was 77.4 (34.9) L/h, the “Plasma metformin CL/F … (CV %)” value (MATE1/2K [3]; Metformin alone, 850 mg oral, Day 1, N = 17) was 105.4 L/h and the “Plasma metformin CL/F … (CV %)” value (MATE1/2K [3]; Metformin alone, 850 mg oral, Day 1, N = 17, listed as Metformin) was 105.4 (26.7) L/h. For the same compound, the “AUC0-last, geometric least-squares (LS) mean” value (MATE1/2K [3]; [5]) was 11054 ng·h/mL, the “Cmax, geometric least-squares (LS) mean” value (MATE1/2K [3]; [5]) was 1418 ng/mL and the “Increase of arithmetic mean metformin AUC0-inf” value (MATE1/2K [3]; [4]) was 1.409 fold. The “Increase of arithmetic mean metformin AUC0-last” value (MATE1/2K [3]; [4]) was 1.376 fold and the “Increase of arithmetic mean metformin Cmax” value (MATE1/2K [3]; [4]) was 1.102 fold.
For `Cc1ncc2n1-c1ccc(Cl)cc1C(c1ccccc1F)=NC2` [midazolam], the “Geometric LS mean ratio (90% CI), AUC0-∞” value (CYP3A4) was 5.74 (5.05, 6.53), the “Geometric LS mean ratio (90% CI), AUClast” value (CYP3A4) was 5.30 (4.65, 6.04) and the “Geometric LS mean ratio (90% CI), Cmax” value (CYP3A4) was 3.01 (2.63, 3.45).
With `C[C@H]1O[C@@H](O[C@H]2[C@@H](O)C[C@H](O[C@H]3[C@@H](O)C[C@H](O[C@H]4CC[C@@]5(C)[C@H](CC[C@@H]6[C@@H]5C[C@@H](O)[C@]5(C)[C@@H](C7=CC(=O)OC7)CC[C@]65O)C4)O[C@@H]3C)O[C@@H]2C)C[C@H](O)[C@@H]1O` [digoxin] the “Geometric LS mean ratio (90% CI), AUC0-∞” value (P-gp) was 1.46 (1.29, 1.66), the “Geometric LS mean ratio (90% CI), AUClast” value (P-gp) was 1.53 (1.35, 1.74) and the “Geometric LS mean ratio (90% CI), Cmax” value (P-gp) was 2.35 (1.90, 2.90).
For `CCCCNC(=O)NS(=O)(=O)c1ccc(CO)cc1` [4-hydroxytolbutamide], the “Geometric LS mean ratio (90% CI), AUC0-∞” value (CYP2C9) was 0.918 (0.880, 0.958), the “Geometric LS mean ratio (90% CI), AUClast” value (CYP2C9) was 0.900 (0.868, 0.934) and the “Geometric LS mean ratio (90% CI), Cmax” value (CYP2C9) was 0.881 (0.831, 0.934).
